In ChEMBL document CHEMBL5604062, “ASAP - ZIKV NS2B-NS3 protease fluorescence dose response” (2024) one finds IC50 data, which are given here for 33 compounds.

Values joined by “and” are separate entries in the source; they are usually repeats but may differ in a detail not shown here. Equal entries are not always repeated. Some results are limits rather than exact numbers.

For this assay, the target named is Nonstructural protein 3 (Zika virus, UniProt A0A024AXB9). Briefly: Functional biochemical assay to identify treatments for viral infectious disease that targets Zika NS2B-NS3 protease. Utilizing a direct enzyme activity measurement method, reading the fluorescence intensity is used to characterize the relative potency of inhibitors as IC50. Also on record: species or system PRVABC59.
Sequence of Nonstructural protein 3 (A0A024AXB9 whole entry): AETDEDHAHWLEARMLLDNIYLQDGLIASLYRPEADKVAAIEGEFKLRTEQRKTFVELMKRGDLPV
The compound `NCc1cccc(N[C@H](C#CCO)c2cc(Cl)cc(NC(=O)OCc3ccccc3)c2)c1` displayed an IC50 of 17.7 µM. In the case of `COc1c(C(=O)N(C)C)cc(Cl)cc1S(=O)(=O)Nc1cccc(-c2nnn[nH]2)c1` it was greater than 99.5 µM; in that of `COCc1cc(Cl)cc(S(=O)(=O)Nc2cccc(-c3nnn[nH]3)c2)c1`, greater than 99.5 µM. The compound `NCc1ccc2c(c1)[C@H]1OCCC[C@H]1[C@H](c1cc(Cl)cc(NC(=O)OCc3ccccc3)c1)N2` gave a half-maximal inhibitory concentration (IC50) of 6.91 µM. In the case of `CC[C@H](Cc1nnn[nH]1)c1ccc(NC(=O)c2cc(Cl)cc(-n3cccc3)c2)cc1` it was 52.9 µM; in that of `O=S(=O)(Nc1cccc(-c2nnn[nH]2)c1)c1cc(Cl)cc(-c2ccccc2)c1`, greater than 99.5 µM; in that of `Nc1cccc(NC(=O)c2cc(Cl)cc(NC(=O)OCc3ccccc3)c2)c1`, greater than 99.5 µM. `COC(=O)c1cc(Cl)cc([C@@H]2CN(Cc3ccccc3)C[C@H]2c2cccc(CN)c2)c1` yielded an IC50 of 47.5 µM. That is a double-digit micromolar value. In the case of `O=S(=O)(Nc1cccc(-c2nnn[nH]2)c1)c1cc(Cl)cc2c1OCC2` it was greater than 99.5 µM; in that of `CCNC(=O)Nc1cc(Cl)cc(C(=O)Nc2cc(C)cc(CN)c2)c1`, 0.676 µM. In the case of `NCc1cc(C(=O)O)cc([C@@H]2C[C@H]2c2cc(Cl)cc(NC(=O)OCc3ccccc3)c2)c1` it was greater than 99.5 µM; in that of `C=CC[C@H](Nc1cc(Cl)cc(NC(=O)OCc2ccccc2)c1)c1cccc(-c2nn[nH]n2)c1`, 13.5 µM and 9.86 µM and 11 µM. In the case of `O=S(=O)(Nc1cccc(-c2nnn[nH]2)c1)c1cc(Cl)cc(C(F)(F)F)c1` it was greater than 99.5 µM; in that of `CCNC(=O)Nc1cc(Cl)cc(C(=O)Nc2ccc3c(c2)CNCCO3)c1`, 0.749 µM. On to `CC[C@H](Cc1nn[nH]n1)c1ccc(N[C@H](C(=O)NC)c2cc(Cl)cc(NC(=O)OCc3ccccc3)c2)cc1`, for which 79.1 µM corresponded to half-maximal inhibition (IC50). The figure for `CCNC(=O)Nc1cc(Cl)cc(C(=O)Nc2cccc(C3CCNCC3)c2)c1` is 19.9 µM; for `O=C(Nc1cc(Cl)cc(C(=O)NC2(c3nn[nH]n3)CCCC2)c1)OCc1ccccc1` it is greater than 99.5 µM; for `Cc1c(C(=O)Nc2cc(F)cc(CN)c2)cc(C2CC2)n1C` it is 89.9 µM. The figure for `O=C(Nc1cc(Cl)cc([C@H]2C[C@@H]2c2ccc3c(c2)CNC3)c1)OCc1ccccc1` is 22.8 µM. `CC[C@H](Cc1nnn[nH]1)c1ccc(NC(=O)[C@H]2[C@H]3CCCCC[C@H]3[C@H]2NC(=O)OCc2ccccc2)cc1` gave a half-inhibitory concentration (IC50) of 52.4 µM. This IC50 is about 2.3-fold higher than that of the compound before.

In turn, `CCNC(=O)Nc1cc(Cl)cc(C(=O)Nc2cc(CCCN)ccc2F)c1` returned a concentration for half-maximal inhibition (IC50) of 6.17 µM.

The compound `CCc1cc(C(=O)Nc2cccc(-n3nn[nH]c3=O)c2)sc1-c1ccc(Cl)cc1` yielded an IC50 of 24.7 µM. Compared with the last compound, the IC50 is about 4-fold higher. `COC(=O)c1cc(CN)cc([C@@H]2C[C@H]2c2cc(Cl)cc(NC(=O)OCc3ccccc3)c2)c1` gave an IC50 of 31.7 µM.

Compound `Cc1ccc(-c2nnn[nH]2)cc1NC(=O)c1cc(Cl)cc(NC(=O)OCc2ccccc2)c1` displayed an IC50 of 58.7 µM. In the case of `NCc1ccc([C@H]2C[C@@H]2c2cc(Cl)cc(NC(=O)OCc3ccccc3)c2)cc1` it was 5.12 µM; in that of `CCNC(=O)Nc1cc(Cl)cc(C(=O)Nc2cccc(-n3nn[nH]c3=O)c2)c1`, greater than 99.5 µM; in that of `O=C(Nc1cc(Cl)cc(/C=C/c2cccc(-n3nn[nH]c3=O)c2)c1)OCc1ccccc1`, greater than 99.5 µM.

The compound `O=C(Nc1cc(Cl)cc(S(=O)(=O)Nc2cccc(-n3nn[nH]c3=O)c2)c1)OCc1ccccc1` showed an IC50 greater than 99.5 µM.

The compound `CNC(=O)[C@H](Nc1cc(Cl)cc(NC(=O)OCc2ccccc2)c1)c1cccc(CN)c1` had an IC50 of 6.31 µM. That is a single-digit micromolar value. In turn, `N#C[C@H](Nc1cccc(C(=O)O)c1)c1cc(Cl)cc2[nH]ncc12` displayed an IC50 greater than 99.5 µM.

For `O=C(Nc1cc(Cl)cc(C(=O)Nc2ccc3c(c2)C(=O)NC3)c1)OCc1ccccc1`, the IC50 was greater than 99.5 µM.

`N[C@H]1CCc2cc(NC(=O)c3cc(Cl)cc(NC(=O)OCc4ccccc4)c3)ccc21` showed a half-maximal inhibitory concentration (IC50) of 5.75 µM.

Turning to `COC(=O)c1cc(Cl)cc(S(=O)(=O)Nc2cccc(-c3nnn[nH]3)c2)c1F`, the half-inhibitory concentration (IC50) is greater than 99.5 µM.
